Source: US10167284B2, “Spirocyclic compounds as agonists of the muscarinic M1 receptor and/or M4 receptor” (HEPTARES THERAPEUTICS LIMITED, priority 2015, dated 2019)

Tests used:
[1] = molecular target: T1, human muscarinic M1 receptor (Homo sapiens, UniProt P11229); assay: Alphascreen Surefire phospho-ERK1/2 functional assay, M1; format: cell-based; details: for EC50 / M1 % Emax cf. ACh: CHO cells stably expressing human M1; for EC50: phospho-ERK1/2, read-out: pEC50 M1 (converted); for Emax: CHO, read-out: M1 % Emax cf. ACh, CHO cells stably expressing human M1; for Emax / M1 % Emax cf. ACh: Emax relative to ACh
T1 construct: expressed in transfected cells
T1 sequence (P11229 1-460): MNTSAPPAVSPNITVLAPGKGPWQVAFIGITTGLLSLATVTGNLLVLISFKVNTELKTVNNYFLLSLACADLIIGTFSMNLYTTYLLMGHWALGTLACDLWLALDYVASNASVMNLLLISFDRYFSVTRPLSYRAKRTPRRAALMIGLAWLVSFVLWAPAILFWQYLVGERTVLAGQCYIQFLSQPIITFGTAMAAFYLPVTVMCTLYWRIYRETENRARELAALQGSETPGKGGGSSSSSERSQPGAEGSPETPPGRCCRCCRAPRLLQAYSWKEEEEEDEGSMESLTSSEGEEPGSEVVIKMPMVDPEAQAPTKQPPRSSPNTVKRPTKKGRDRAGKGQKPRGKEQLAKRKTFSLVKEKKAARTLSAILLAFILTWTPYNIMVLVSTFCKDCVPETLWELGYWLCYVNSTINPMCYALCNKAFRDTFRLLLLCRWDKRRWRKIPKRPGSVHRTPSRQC
Method: (§1) CHO cells stably expressing the human muscarinic M1, M2, M3 or M4 receptor were plated (25K/well) onto 96-well tissue culture plates in MEM-alpha+10% dialysed FBS. Once adhered, cells were serum-starved overnight. Agonist stimulation was performed by the addition of 5 μL agonist to the cells for 5 min (37° C.). Media was removed and 50 μL of lysis buffer added. After 15 min, a 4 μL sample was transferred to 384-well plate and 7 μL of detection mixture added. Plates were incubated for 2 h with gentle agitation in the dark and then read on a PHERAstar plate reader.
(§2) pEC50 and Emax figures were calculated from the resulting data for each receptor subtype.

[2] = molecular target: T2, human muscarinic M4 receptor (Homo sapiens, UniProt P08173); assay: Alphascreen Surefire phospho-ERK1/2 functional assay, M4; format: cell-based; details: for EC50 / M4 % Emax cf. ACh: CHO cells stably expressing human M4; for EC50: phospho-ERK1/2, read-out: pEC50 M4 (converted); for Emax: CHO, read-out: M4 % Emax cf. ACh, CHO cells stably expressing human M4; for Emax / M4 % Emax cf. ACh: Emax relative to ACh
T2 construct: expressed in transfected cells
T2 sequence (P08173 1-479): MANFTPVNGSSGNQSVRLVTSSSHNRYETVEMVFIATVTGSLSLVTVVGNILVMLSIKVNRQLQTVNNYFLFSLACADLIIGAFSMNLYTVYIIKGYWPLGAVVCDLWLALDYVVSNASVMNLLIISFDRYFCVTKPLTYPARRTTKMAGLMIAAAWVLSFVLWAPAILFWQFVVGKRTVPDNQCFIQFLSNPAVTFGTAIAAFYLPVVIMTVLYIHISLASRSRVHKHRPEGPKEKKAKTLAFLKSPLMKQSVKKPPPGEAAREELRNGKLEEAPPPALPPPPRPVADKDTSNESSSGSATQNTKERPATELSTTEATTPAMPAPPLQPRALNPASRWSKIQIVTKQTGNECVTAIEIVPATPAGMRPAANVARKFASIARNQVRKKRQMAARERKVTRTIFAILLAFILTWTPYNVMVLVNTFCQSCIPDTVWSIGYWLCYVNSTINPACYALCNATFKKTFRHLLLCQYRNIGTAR
Method: as §1, §2

[3] = molecular target: T3, human muscarinic M2 receptor (Homo sapiens, UniProt P08172); assay: Alphascreen Surefire phospho-ERK1/2 functional assay, M2; details: for Emax: CHO, read-out: M2 % Emax cf. ACh, CHO cells stably expressing human M2; for EC50: pEC50 M2, CHO cells stably expressing human M2
T3 sequence (P08172 1-466): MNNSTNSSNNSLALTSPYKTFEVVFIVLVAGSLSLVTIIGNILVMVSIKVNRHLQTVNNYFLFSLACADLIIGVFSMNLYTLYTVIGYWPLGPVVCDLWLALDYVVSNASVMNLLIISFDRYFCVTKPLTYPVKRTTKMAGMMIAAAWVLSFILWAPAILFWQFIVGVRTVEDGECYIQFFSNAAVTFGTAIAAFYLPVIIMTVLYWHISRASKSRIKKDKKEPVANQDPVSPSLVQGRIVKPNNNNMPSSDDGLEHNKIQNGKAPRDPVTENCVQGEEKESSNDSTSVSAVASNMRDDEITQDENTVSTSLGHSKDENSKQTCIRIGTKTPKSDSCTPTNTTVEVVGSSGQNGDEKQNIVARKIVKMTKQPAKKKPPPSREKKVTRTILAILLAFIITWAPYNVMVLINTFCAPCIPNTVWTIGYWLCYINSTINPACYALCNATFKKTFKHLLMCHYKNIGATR
Method: as §1, §2

[4] = molecular target: human muscarinic M3 receptor (Homo sapiens, UniProt P20309); assay: Alphascreen Surefire phospho-ERK1/2 functional assay, M3; details: for Emax: CHO, read-out: M3 % Emax cf. ACh, CHO cells stably expressing human M3; for Emax / M3 % Emax cf. ACh: Emax relative to ACh
Method: as §1, §2

[5] = tested on: d-amphetamine induced hyperactivity in rats; assay: d-Amphetamine-induced hyperactivity in rats; format: in vivo; details: positive control dose, previously observed
Method: Effect of a Novel Test Compound and Xanomeline on d-Amphetamine-Induced Hyperactivity in Rats
The aim of the study is to examine the effect of a novel test compound on d-amphetamine induced hyperactivity in rats. Schizophrenia is a complex multifactorial disease that cannot be fully represented by a single experimental procedure. Antipsychotic-like behaviour was assessed in rats by the inhibition of hyperactivity (or hyperlocomotion) elicited by d-amphetamine. This procedure is sensitive to clinically relevant dopamine receptor antagonists and is therefore considered suitable for comparing muscarinic agonists that influence dopaminergic signalling. […] Statistical analysis typically involved three-way analysis of covariance or robust regression with treatment, day and rack as factors and activity during the 30 minutes prior to treatment as a covariate, followed by appropriate multiple comparison tests. A P value of <0.05 was considered statistically significant and is marked accordingly in all subsequent figures.

[6] = CHO cells stably expressing human M3

Chain of human muscarinic M3 receptor (P20309 whole entry): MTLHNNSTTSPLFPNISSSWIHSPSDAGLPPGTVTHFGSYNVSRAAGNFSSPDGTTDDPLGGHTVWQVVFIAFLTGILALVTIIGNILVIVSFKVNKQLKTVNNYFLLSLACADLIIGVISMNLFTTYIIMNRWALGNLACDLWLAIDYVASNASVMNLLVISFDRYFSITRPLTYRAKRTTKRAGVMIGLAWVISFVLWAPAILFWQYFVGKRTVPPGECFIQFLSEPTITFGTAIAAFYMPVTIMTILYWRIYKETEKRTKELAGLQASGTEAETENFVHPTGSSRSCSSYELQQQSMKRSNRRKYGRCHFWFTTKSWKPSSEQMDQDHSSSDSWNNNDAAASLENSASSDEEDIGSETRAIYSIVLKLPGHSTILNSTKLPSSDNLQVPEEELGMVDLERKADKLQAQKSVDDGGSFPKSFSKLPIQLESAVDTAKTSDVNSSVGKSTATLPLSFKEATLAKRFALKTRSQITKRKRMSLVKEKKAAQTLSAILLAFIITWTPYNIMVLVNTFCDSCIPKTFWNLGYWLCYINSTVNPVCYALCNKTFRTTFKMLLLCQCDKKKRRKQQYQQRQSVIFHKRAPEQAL

Structure (SMILES)	EC50 [1] [nM]	Emax [1] [%]	EC50 [2] [nM]	Emax [2] [%]	Emax ([3]; Emax relative to ACh) [%]	EC50 ([3]; phospho-ERK1/2) [nM]	EC50 [4] [nM]	Emax [4] [%]	M1 % Emax cf. ACh [1]	M4 % Emax cf. ACh [2]	M3 % Emax cf. ACh [4, 6]	M2 % Emax cf. ACh ([3]; CHO cells stably expressing human M2, Emax relative to ACh)	pEC50 M2 ([3]; CHO cells stably expressing human M2, phospho-ERK1/2)	pEC50 M3 ([4]; CHO cells stably expressing human M3, phospho-ERK1/2)	d-amphetamine induced hyperactivity [5]
CCOC(=O)N1CCC2(CC(N3CCC4(CC3)OC(=O)N(CCF)C4(C)C)C2)C1 (single isomer, unassigned) [4-40 Isomer 2]	7940	37	39.8	109	4	> 20000	> 20000	6							
CCOC(=O)N1CCC2(CC(N3CCC4(CC3)OC(=O)N(CCOC)C4(C)C)C2)C1 (single isomer, unassigned) [4-41 Isomer 2]	> 20000	8	100	86	5	> 20000	> 20000	42							
CCOC(=O)N1CCC2(CC(N3CCC4(CC3)OC(=O)N(CC(F)(F)F)C4(C)C)C2)C1 (single isomer, unassigned) [4-43 Isomer 2]	> 20000	6	79.4	75	5	> 20000	> 20000	6							
CCOC(=O)N1CCC2(CC(N3CCC4(CC3)OC(=O)N3CCCC34)C2)C1 (single isomer, unassigned) [4-44 Isomer 3]	200		50.1		7	> 20000	> 20000		(40) %	(43) %	(3) %				
CCOC(=O)N1CCC2(CC(N3CCC4(CC3)OC(=O)N3CCCC34)C2)C1 (single isomer, unassigned) [4-44 Isomer 4]	1260		79.4						(67) %	(97) %	(10) %	(14) %	<4.7	<4.7	
CCOC(=O)N1CCC2(CC(N3CCC4(CC3)CNC(=O)N4)C2)C1 (single isomer, unassigned) [5-2 Isomer 2]	126	92	316	50	143	> 20000	> 20000	5							
CCN1NC(=O)CC12CCN(C1CC3(CCN(C(=O)OC)C3)C1)CC2 (single isomer, unassigned) [6-1 Isomer 2]	631	77	126	68	13	> 20000	> 20000	11							
CCOC(=O)N1CCC2(CC(N3CCC4(CC3)CC(=O)NN4CC)C2)C1 (single isomer, unassigned) [6-2 Isomer 2]	63.1	109	20	114	0	> 20000	> 20000	10							
CCCN1NC(=O)CC12CCN(C1CC3(CCN(C(=O)OCC)C3)C1)CC2 (single isomer, unassigned) [6-4 Isomer 2]	31.6	89	3.98	100	20	> 20000	> 20000	26							
CCOC(=O)N1CCC2(CC(N3CCC4(CC3)CC(=O)NN4Cc3ccccc3)C2)C1 (single isomer, unassigned) [6-6 Isomer 2]	158		316		3	> 20000	> 20000	4	(71) %	26) %					
CCOC(=O)N1CCC2(CC(N3CCC4(CC3)CC(=O)N(CC)N4CC)C2)C1 (single isomer, unassigned) [6-8 Isomer 2]	3160	55	63.1	103	10	> 20000	> 20000	100							
CCCN1C(=O)CC2(CCN(C3CC4(CCN(C(=O)OCC)C4)C3)CC2)N1CC (single isomer, unassigned) [6-9 Isomer 2]	> 20000	17	39.8	84	1	> 20000	> 20000	50							
CCOC(=O)N1CC2(CCC(N3CCC4(CC3)OC(=O)NC4(C)C)C2)C1 (single isomer, unassigned) [8-3 Isomer 2]	> 20000	12	3.16	39	2	> 20000	> 20000	4							
CCOC(=O)N1CC2(CC(N3CCC4(CC3)OC(=O)N(CC)C4(C)C)C2)C1 [Example 2-4, ethyl 6-(3-ethyl-4,4-dimethyl-2-oxo-1-oxa-3,8-diazaspiro[4.5]dec-8-yl)-2-azaspiro[3.3]heptane-2-carboxylate]	1000	56	501	95	14	> 20000	> 20000	24							
CCCCCCOc1nsnc1C1=CCCN(C)C1 [xanomeline]															significantly reduce
